Data reported in patent US20230340011A1 (Asteroid Therapeutics, priority 2022, published 2023).
pEC50, pIC50: −log10 of the molar value.

Key:
SREBP-2 = SREBP-2 (Homo sapiens (Human), UniProt Q12772); test: In vitro assay SREBP-2: PathHunter U2OS SREBP-2 Nuclear Translocation Cell Line, U18666A-stimulated; assay type: cell-based; settings: PathHunter U2OS SREBP-2 nuclear translocation cells, U18666A 10 μM, overnight (16 hours)
LXRβ = LXRβ (Homo sapiens (Human), UniProt P55055); test: In vitro assay LXRβ: PathHunter NHR CHO cells, LXRβ / Steroid Receptor Co-activator Peptide enzyme fragment complementation; assay type: cell-based; settings: PathHunter NHR CHO cells, full-length human LXRβ and SRCP, chemiluminescent signal; read-out: LXRβ PPI
In short: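 Enzyme fragment complementation read-out: CHO cells stably expressing ProLink-tagged full-length human LXRβ plus nuclear enzyme acceptor–SRCP fusion, seeded and held overnight at 37° C. Medium with charcoal-dextran filtered serum; final vehicle 1%. Chemiluminescence measured after signal generation.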

LXRβ, sequence (P55055 whole entry, the tested form may be a part): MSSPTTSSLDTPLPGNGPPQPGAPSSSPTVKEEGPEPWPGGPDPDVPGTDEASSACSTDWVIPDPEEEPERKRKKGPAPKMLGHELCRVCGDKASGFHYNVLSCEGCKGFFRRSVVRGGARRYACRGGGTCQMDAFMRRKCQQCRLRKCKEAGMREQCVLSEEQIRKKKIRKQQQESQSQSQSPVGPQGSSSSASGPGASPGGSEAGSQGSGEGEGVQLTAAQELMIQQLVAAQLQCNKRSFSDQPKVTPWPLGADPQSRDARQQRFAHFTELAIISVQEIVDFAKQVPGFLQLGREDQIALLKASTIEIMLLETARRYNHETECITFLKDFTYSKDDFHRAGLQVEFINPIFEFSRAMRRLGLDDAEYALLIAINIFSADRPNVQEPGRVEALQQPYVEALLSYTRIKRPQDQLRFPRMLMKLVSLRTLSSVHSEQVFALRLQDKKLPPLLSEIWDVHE

Row | SMILES | pIC50 (SREBP-2) | pEC50 (LXRβ)
1 | C[C@H](CCc1ccc2ccccc2n1)[C@H]1CC[C@H]2[C@@H]3CC=C4C[C@@H](O)CC[C@]4(C)[C@H]3CC[C@]12C [Example 178, (3S,8S,9S,10R,13R,14S,17R)-10,13-dimethyl-17-((R)-4-(quinolin-2-yl)butan-2-yl)-2,3,4,7,8,9,10,11,12,13,14,15,16,17-tetradecahydro-1H-cyclopenta[a]phenanthren-3-ol] | 6.00 to 6.60 | < 5.00
2 | Cc1nccc(N2CCN(C(=O)CC[C@@H](C)[C@H]3CC[C@H]4[C@@H]5CC=C6C[C@@H](O)CC[C@]6(C)[C@H]5CC[C@]34C)CC2)n1 [Example 205, (R)-4-((3S,8S,9S,10R,13R,14S,17R)-3-hydroxy-10,13-dimethyl-2,3,4,7,8,9,10,11,12,13,14,15,16,17-tetradecahydro-1H-cyclopenta[a]phenanthren-17-yl)-1-(4-(2-methylpyrimidin-4-yl)piperazin-1-yl)pentan-1-one] | > 6.60 | < 5.00
3 | CON(CCO)C(=O)CC[C@@H](C)[C@H]1CC[C@H]2[C@@H]3CC=C4C[C@@H](O)CC[C@]4(C)[C@H]3CC[C@]12C [Example 62, (R)-4-((3S,8S,9S,10R,13R,14S,17R)-3-hydroxy-10,13-dimethyl-2,3,4,7,8,9,10,11,12,13,14,15,16,17-tetradecahydro-1H-cyclopenta[a]phenanthren-17-yl)-N-(2-hydroxyethyl)-N-methoxypentanamide] | 6.00 to 6.60 | 6.00 to 6.60
4 | COc1cncc(N2CCN(C(=O)CC[C@@H](C)[C@H]3CC[C@H]4[C@@H]5CC=C6C[C@@H](O)CC[C@]6(C)[C@H]5CC[C@]34C)CC2)n1 [Example 662, (R)-4-((3S,8S,9S,10R,13R,14S,17R)-3-hydroxy-10,13-dimethyl-2,3,4,7,8,9,10,11,12,13,14,15,16,17-tetradecahydro-1H-cyclopenta[a]phenanthren-17-yl)-1-(4-(6-methoxypyrazin-2-yl)piperazin-1-yl)pentan-1-one] | > 6.60 | < 5.00
5 | C[C@H](CCC(=O)N1CCN(C(=O)c2cnn(C)c2)[C@@H](C)C1)[C@H]1CC[C@H]2[C@@H]3CC=C4C[C@@H](O)CC[C@]4(C)[C@H]3CC[C@]12C [Example 565, (4R)-4-[(1R,3aS,3bS,7S,9aR,9bS,11aR)-7-hydroxy-9a,11a-dimethyl-1H,2H,3H,3aH,3bH,4H,6H,7H,8H,9H,9aH,9bH,10H,11H,11aH-cyclopenta[a]phenanthren-1-yl]-1-[(3S)-3-methyl-4-(1-methyl-1H-pyrazole-4-carbonyl)piperazin-1-yl]pentan-1-one] | > 6.60 | < 5.00
6 | C[C@H](C(=O)NCc1ccncc1)[C@H]1CC[C@H]2[C@@H]3CC=C4C[C@@H](O)CC[C@]4(C)[C@H]3CC[C@]12C [Example 599, (S)-2-((3S,8S,9S,10R,13S,14S,17R)-3-hydroxy-10,13-dimethyl-2,3,4,7,8,9,10,11,12,13,14,15,16,17-tetradecahydro-1H-cyclopenta[a]phenanthren-17-yl)-N-(pyridin-4-ylmethyl)propanamide] | 5.00 to 6.00 | < 5.00
7 | C[C@H](CCC(=O)N1CCN(C(=O)c2ccccn2)CC1)[C@H]1CC[C@H]2[C@@H]3CC=C4C[C@@H](O)CC[C@]4(C)[C@H]3CC[C@]12C [Example 335, (4R)-4-[(1R,3aS,3bS,7S,9aR,9bS,11aR)-7-hydroxy-9a,11a-dimethyl-1H,2H,3H,3aH,3bH,4H,6H,7H,8H,9H,9aH,9bH,10H,11H,11aH-cyclopenta[a]phenanthren-1-yl]-1-[4-(pyridine-2-carbonyl)piperazin-1-yl]pentan-1-one] | > 6.60 | < 5.00
8 | C[C@H](CCC(=O)N(C)CCc1cccnc1)[C@H]1CC[C@H]2[C@@H]3CC=C4C[C@@H](O)CC[C@]4(C)[C@H]3CC[C@]12C [Example 543, (R)-4-((3S,8S,9S,10R,13R,14S,17R)-3-hydroxy-10,13-dimethyl-2,3,4,7,8,9,10,11,12,13,14,15,16,17-tetradecahydro-1H-cyclopenta[a]phenanthren-17-yl)-N-methyl-N-(2-(pyridin-3-yl)ethyl)pentanamide] | > 6.60 | 6.00 to 6.60
9 | C[C@H](CCC(=O)N1CC2(C1)CC(C)(CO)C2)[C@H]1CC[C@H]2[C@@H]3CC=C4C[C@@H](O)CC[C@]4(C)[C@H]3CC[C@]12C [Example 372, (R)-4-((3S,8S,9S,10R,13R,14S,17R)-3-hydroxy-10,13-dimethyl-2,3,4,7,8,9,10,11,12,13,14,15,16,17-tetradecahydro-1H-cyclopenta[a]phenanthren-17-yl)-1-(6-(hydroxymethyl)-6-methyl-2-azaspiro[3.3]heptan-2-yl)pentan-1-one] | > 6.60 | < 5.00
10 | COc1cccnc1NC(=O)CC[C@@H](C)[C@H]1CC[C@H]2[C@@H]3CC=C4C[C@@H](O)CC[C@]4(C)[C@H]3CC[C@]12C [Example 625, (R)-4-((3S,8S,9S,10R,13R,14S,17R)-3-hydroxy-10,13-dimethyl-2,3,4,7,8,9,10,11,12,13,14,15,16,17-tetradecahydro-1H-cyclopenta[a]phenanthren-17-yl)-N-(3-methoxypyridin-2-yl)pentanamide] | > 6.60 | < 5.00
11 | C[C@H](CCC(=O)N1CCN(C(=O)C2CC2)C[C@@H]1C)[C@H]1CC[C@H]2[C@@H]3CC=C4C[C@@H](O)CC[C@]4(C)[C@H]3CC[C@]12C [Example 651, (R)-1-((S)-4-(cyclopropanecarbonyl)-2-methylpiperazin-1-yl)-4-((3S,8S,9S,10R,13R,14S,17R)-3-hydroxy-10,13-dimethyl-2,3,4,7,8,9,10,11,12,13,14,15,16,17-tetradecahydro-1H-cyclopenta[a]phenanthren-17-yl)pentan-1-one] | > 6.60 | < 5.00
12 | C[C@H](CCC(=O)N1CCS(=O)(=O)C1)[C@H]1CC[C@H]2[C@@H]3CC=C4C[C@@H](O)CC[C@]4(C)[C@H]3CC[C@]12C [Example 357, (R)-1-(1,1-dioxidothiazolidin-3-yl)-4-((3S,8S,9S,10R,13R,14S,17R)-3-hydroxy-10,13-dimethyl-2,3,4,7,8,9,10,11,12,13,14,15,16,17-tetradecahydro-1H-cyclopenta[a]phenanthren-17-yl)pentan-1-one] | > 6.60 | < 5.00
13 | C[C@@H]1CCN(C(=O)CC[C@@H](C)[C@H]2CC[C@H]3[C@@H]4CC=C5C[C@@H](O)CC[C@]5(C)[C@H]4CC[C@]23C)C1 [Example 115, (R)-4-((3S,8S,9S,10R,13R,14S,17R)-3-hydroxy-10,13-dimethyl-2,3,4,7,8,9,10,11,12,13,14,15,16,17-tetradecahydro-1H-cyclopenta[a]phenanthren-17-yl)-1-((R)-3-methylpyrrolidin-1-yl)pentan-1-one] | > 6.60 | 6.00 to 6.60
14 | C[C@H](CCC(=O)N1CCN(S(N)(=O)=O)CC1)[C@H]1CC[C@H]2[C@@H]3CC=C4C[C@@H](O)CC[C@]4(C)[C@H]3CC[C@]12C [Example 359, 4-[(4R)-4-[(1R,3aS,3bS,7S,9aR,9bS,11aR)-7-hydroxy-9a,11a-dimethyl-1H,2H,3H,3aH,3bH,4H,6H,7H,8H,9H,9aH,9bH,10H,11H,11aH-cyclopenta[a]phenanthren-1-yl]pentanoyl]piperazine-1-sulfonamide] | > 6.60 | < 5.00
15 | Cc1nccc(N2CCN(C(=O)CC[C@@H](C)[C@H]3CC[C@H]4[C@@H]5CC=C6C[C@@H](O)CC[C@]6(C)[C@H]5CC[C@]34C)C[C@@H]2C)n1 [Example 647, (4R)-4-[(1R,3aS,3bS,7S,9aR,9bS,11aR)-7-hydroxy-9a,11a-dimethyl-1H,2H,3H,3aH,3bH,4H,6H,7H,8H,9H,9aH,9bH,10H,11H,11aH-cyclopenta[a]phenanthren-1-yl]-1-[(3S)-3-methyl-4-(2-methylpyrimidin-4-yl)piperazin-1-yl]pentan-1-one] | > 6.60 | < 5.00
16 | C[C@H](CCC(=O)N1CCC(N(C)C(=O)c2ccncc2)CC1)[C@H]1CC[C@H]2[C@@H]3CC=C4C[C@@H](O)CC[C@]4(C)[C@H]3CC[C@]12C [Example 288, N-(1-((R)-4-((3S,8S,9S,10R,13R,14S,17R)-3-hydroxy-10,13-dimethyl-2,3,4,7,8,9,10,11,12,13,14,15,16,17-tetradecahydro-1H-cyclopenta[a]phenanthren-17-yl)pentanoyl)piperidin-4-yl)-N-methylisonicotinamide] | 6.00 to 6.60 | < 5.00
17 | COC(=O)N1CCC(C(=O)NC[C@@H](C)[C@H]2CC[C@H]3[C@@H]4CC=C5C[C@@H](O)CC[C@]5(C)[C@H]4CC[C@]23C)CC1 [Example 591, Methyl 4-{[(2S)-2-[(1R,3aS,3bS,7S,9aR,9bS,11aS)-7-hydroxy-9a,11a-dimethyl-1H,2H,3H,3aH,3bH,4H,6H,7H,8H,9H,9aH,9bH,10H,11H,11aH-cyclopenta[a]phenanthren-1-yl]propyl]carbamoyl}piperidine-1-carboxylate] | > 6.60 | < 5.00
18 | C[C@H](CCC(=O)N1CC(C(O)(C(F)(F)F)C(F)(F)F)C1)[C@H]1CC[C@H]2[C@@H]3CC=C4C[C@@H](O)CC[C@]4(C)[C@H]3CC[C@]12C [Example 97, (R)-1-(3-(1,1,1,3,3,3-hexafluoro-2-hydroxypropan-2-yl)azetidin-1-yl)-4-((3S,8S,9S,10R,13R,14S,17R)-3-hydroxy-10,13-dimethyl-2,3,4,7,8,9,10,11,12,13,14,15,16,17-tetradecahydro-1H-cyclopenta[a]phenanthren-17-yl) pentan-1-one] | > 6.60 | < 5.00
19 | C[C@H](CCc1cncs1)[C@H]1CC[C@H]2[C@@H]3CC=C4C[C@@H](O)CC[C@]4(C)[C@H]3CC[C@]12C [Example 173, (3S,8S,9S,10R,13R,14S,17R)-10,13-dimethyl-17-((R)-4-(thiazol-5-yl)butan-2-yl)-2,3,4,7,8,9,10,11,12,13,14,15,16,17-tetradecahydro-1H-cyclopenta[a]phenanthren-3-ol] | 6.00 to 6.60 | < 5.00
